We go through 26 compounds from patent US10017492B2 (KANGPU BIOPHARMACEUTICALS, LTD., priority 2014, dated 2018).

Read-outs that look alike come from different tables or passages of the source. Some results are limits rather than exact numbers.

The subject of one assay is TNF-α. The assay can be described thus: TNF-α activity inhibiting assay (LPS-stimulated peripheral blood, ELISA). The assay is classed as cell-based, human. The following applies: compound 100 nM, diluted peripheral blood of healthy volunteers, LPS 10 ng/mL, 6 hours; for inhibition at 0.1 µM: Homo sapiens, read-out: Inhibitory Rate on TNF-α (%). The protocol:
TNF-α Activity Inhibiting Assay
Peripheral blood from healthy volunteers was collected and collected with EDTA anticoagulant tubes. After being diluted 5-fold with 1640 medium (Gibco, catalog number 11875-093, USA), the blood was added to 96-well cell culture plates (Costar, catalog number 3599, USA) and then treated with 10 μL solution of the compound of general formula (I) of the present invention in DMSO (Sigma, catalog number D2650, USA). The final concentration of the compound was 100 nM, and the final concentration of DMSO was 0.2%. After incubation for 60 minutes in an incubator at 37° C. under 5% CO2, 10 μL LPS (Sigma, catalog number L-2880, USA) was added to the reaction system, and the final concentration was 10 ng/mL. After further culturing for 6 hours in the incubator at 37° C. under 5% CO2, the supernatant was collected. The content of TNF-α was determined by ELISA (BD Biosciences, catalog number 555212, USA). Absorbance was detected at OD450 nm with a microplate reader, with OD 650 nm as reference. The control, a solution containing 0.2% DMSO medium, was as 0% inhibition. Raw data and standard curves were recorded. The four-parameter drug inhibition curve was plotted by XL-fit software and the inhibition rate of each compound was calculated, as shown in Table 1.
Background: In an ELISA, binding on a coated surface is turned into a signal by an enzyme label.

For assay [1], the system named is MM.1S cells (myeloma cells). As to the kind of experiment: Cell proliferation assay (MTS), MM.1S myeloma cells. The assay is classed as cell-based. The following applies: 72 hours, read-out: IC50 values of MMIS Inhibition. The protocol: MM.1S cells (myeloma cells) (ATCC, catalog number CRL-2974) were seeded at 1.8×10^3 per well to a 96-well culture plate containing […] (Gibco, catalog number A10491-01), and were incubated in an incubator for 24 hours at 37° C. under 5% CO2. Compounds were prepared as 20 mM stock solutions with DMSO (Sigma, catalog number D2650), and were diluted with the medium to the desired concentration (the final concentration of DMSO was 0.5%) and then were added to each well, incubated in an incubator for 72 hours at 37° C. under 5% CO2. Then, 20 μL MTS (Promega, catalog number G3581) was added to each well, and further incubated for 1-4 hours in an incubator at 37° C. under 5% CO2. OD490 nm was detected with OD650 nm as reference. The control, a solution containing 0.5% DMSO medium, was as 0% inhibition. GraphPad Prism 5 was used, slope was allowed to change to make the dose-effect curve and IC50 values were calculated, shown in table 2 for details.

One may read the IC50 as the midpoint of a concentration-inhibition curve.

Take `CC(=O)Nc1cccc(CNc2cccc3c2CN(C2CCC(=O)NC2=O)C3=O)c1F` (centres unmarked) [Compound A388, N-(3-(((2-(2,6-dioxopiperidin-3-yl)-1-oxoisoindolin-4-yl)amino)methyl)-2-fluorophenyl)acetamide]: the inhibition at 0.1 µM in the assay on TNF-α was at least 50%. In addition, the IC50 in assay [1] (Homo sapiens, MM1.S) was under 300 nM.

Take `CNC(=O)Oc1ccc(F)c(CNc2cccc3c2CN(C2CCC(=O)NC2=O)C3=O)c1` (centres unmarked) [Compound A371, 3-(((2-(2,6-Dioxopiperidin-3-yl)-1-oxoisoindolin-4-yl)amino)methyl)-4-fluorophenyl methylcarbamate]: the inhibition at 0.1 µM in the assay on TNF-α is at least 50%. Besides, in assay [1] (Homo sapiens, MM1.S), the IC50 was under 300 nM. Consider `COc1ccc(F)c(CNc2cccc3c2CN([C@@H]2CCC(=O)NC2=O)C3=O)c1` [Compound A341, (R)-3-(4-((2-fluoro-5-methoxybenzyl)amino)-1-oxoisoindolin-2-yl)piperidine-2,6-dione], for which, in the assay with TNF-α, the inhibition at 0.1 µM was under 50%. The IC50 in assay [1] (Homo sapiens, MM1.S) was under 300 nM. Consider `[2H][C@]1(N2Cc3c(NCc4ccc(CN5CCOCC5)cc4)cccc3C2=O)CCC(=O)NC1=O` [Compound A373, (S)-3-deuterium-3-(4-((4-(morpholinomethyl)benzyl)amino)-1-oxoisoindolin-2-yl)piperidine-2,6-dione], for which the inhibition at 0.1 µM with TNF-α is at least 50%. The half-maximal inhibitory concentration (IC50) in assay [1] (Homo sapiens, MM1.S) is under 300 nM. For the compound `[2H]C1(N2Cc3c(OCc4ccc(CN5CCOCC5)cc4F)cccc3C2=O)CCC(=O)NC1=O` (centres unmarked) [Compound A425, 3-deuterium-3-(4-((2-fluoro-5-(morpholinomethyl)benzyl)oxy)-1-oxoisoindolin-2-yl)piperidine-2,6-dione], the “Inhibitory Rate on TNF-α (%)” value in the assay on TNF-α is at least 50%. In addition, the IC50 in assay [1] is under 300 nM. With `Cc1ccc(CNc2cccc3c2CN(C2CCC(=O)NC2=O)C3=O)cc1F` (centres unmarked) [Compound A353, 3-(4-((3-fluoro-4-methylbenzyl)amino)-1-oxoisoindolin-2-yl)piperidine-2,6-dione], in the assay on TNF-α, the inhibition at 0.1 µM was under 50%. Further, in assay [1] (Homo sapiens, MM1.S), the IC50 is under 300 nM. With `O=C1CCC(N2Cc3c(NCc4cc(OCCN5CCOCC5)ccc4F)cccc3C2=O)C(=O)N1` (centres unmarked) [Compound A368, 3-(4-((2-fluoro-5-(2-morpholinoethoxy)benzyl)amino)-1-oxoisoindolin-2-yl)piperidine-2,6-dione], the inhibition at 0.1 µM in the assay with TNF-α is at least 50%. The half-inhibitory concentration (IC50) in assay [1] (Homo sapiens, MM1.S) was under 300 nM.

As to `CNC(=O)c1cccc(CNc2cccc3c2CN(C2CCC(=O)NC2=O)C3=O)c1F` (centres unmarked) [Compound A362, 3-(((2-(2,6-Dioxopiperidin-3-yl)-1-oxoisoindolin-4-yl)amino)methyl)-2-fluoro-N-methylbenzamide], the inhibition at 0.1 µM in the assay on TNF-α is under 50%. The concentration for half-maximal inhibition (IC50) in assay [1] (Homo sapiens, MM1.S) was at least 300 nM. Take `CNc1ccc(F)c(CNc2cccc3c2CN(C2CCC(=O)NC2=O)C3=O)c1` (centres unmarked) [Compound A387, 3-(4-((2-fluoro-5-(methylamino)benzyl)amino)-1-oxoisoindolin-2-yl)piperidine-2,6-dione]: the inhibition at 0.1 µM in the assay with TNF-α was at least 50%. Further, the IC50 in assay [1] (Homo sapiens, MM1.S) was under 300 nM. `CN1CCN(CCOc2ccc(F)c(CNc3cccc4c3CN(C3CCC(=O)NC3=O)C4=O)c2)CC1` (centres unmarked) [Compound A377, 3-(4-((2-fluoro-5-(2-(4-methylpiperazin-1-yl)ethoxy)benzyl)amino)-1-oxoisoindolin-2-yl)piperidine-2,6-dione]: in the assay with TNF-α, the inhibition at 0.1 µM is under 50%. Moreover, the half-inhibitory concentration (IC50) in assay [1] (Homo sapiens, MM1.S) was at least 300 nM. On to `COc1cc(CNc2cccc3c2CN(C2CCC(=O)NC2=O)C3=O)cc(OC)c1` (centres unmarked) [Compound A355, 3-(4-((3,5-dimethoxybenzyl)amino)-1-oxoisoindolin-2-yl)piperidine-2,6-dione], for which the inhibition at 0.1 µM in the assay with TNF-α was under 50%. For the same compound, the IC50 in assay [1] (Homo sapiens, MM1.S) was at least 300 nM. On to `O=C1CCC(N2Cc3c(NCc4cc(OCCCN5CCOCC5)ccc4F)cccc3C2=O)C(=O)N1` (centres unmarked) [Compound A369, 3-(4-((2-fluoro-5-(3-morpholinopropoxy)benzyl)amino)-1-oxoisoindolin-2-yl)piperidine-2,6-dione], for which the inhibition at 0.1 µM with TNF-α was at least 50%. Further, in assay [1] (Homo sapiens, MM1.S), the IC50 is under 300 nM. Turning to `Cc1ccc(CNc2cccc3c2CN(C2CCC(=O)NC2=O)C3=O)cc1C` (centres unmarked) [Compound A350, 3-(4-((3,4-dimethylbenzyl)amino)-1-oxoisoindolin-2-yl)piperidine-2,6-dione], the inhibition at 0.1 µM with TNF-α was under 50%. Besides, the IC50 in assay [1] (Homo sapiens, MM1.S) was under 300 nM. On to `O=C1CCC(N2Cc3c(OCc4ccccc4F)cccc3C2=O)C(=O)N1` (centres unmarked) [Compound A336, 3-[4-(2-Fluoro-benzyloxy)-1-oxo-1,3-dihydro-isoindol-2-yl]-piperidine-2,6-dione], for which, in assay [1] (Homo sapiens, MM1.S), the IC50 is under 300 nM. For `Nc1ccc(F)c(CNc2cccc3c2CN(C2CCC(=O)NC2=O)C3=O)c1` (centres unmarked) [Compound A391, 3-(4-((5-amino-2-fluorobenzyl)amino)-1-oxoisoindolin-2-yl)piperidine-2,6-dione], the inhibition at 0.1 µM in the assay on TNF-α is at least 50%. The IC50 in assay [1] (Homo sapiens, MM1.S) is at least 300 nM. On to `COc1ccc(CNc2cccc3c2CN(C2CCC(=O)NC2=O)C3=O)cc1Cl` (centres unmarked) [Compound A354, 3-(4-((3-chloro-4-methoxybenzyl)amino)-1-oxoisoindolin-2-yl)piperidine-2,6-dione], for which the inhibition at 0.1 µM in the assay on TNF-α was under 50%. In addition, in assay [1] (Homo sapiens, MM1.S), the IC50 is under 300 nM. `[2H][C@]1(N2Cc3c(OCc4cccc(OC)c4F)cccc3C2=O)CCC(=O)NC1=O` [Compound A380, (S)-3-deuterium-3-(4-((2-fluoro-3-methoxybenzyl)oxy)-1-oxoisoindolin-2-yl)piperidine-2,6-dione]: the inhibition at 0.1 µM with TNF-α is under 50%. In addition, the half-inhibitory concentration (IC50) in assay [1] (Homo sapiens, MM1.S) is under 300 nM. The like results for `O=C1CCC(N2Cc3c(NCc4ccc(O)cc4F)cccc3C2=O)C(=O)N1` (centres unmarked) [Compound A396, 3-(4-((2-fluoro-4-hydroxybenzyl)amino)-1-oxoisoindolin-2-yl)piperidine-2,6-dione] were, in that order, under 50% and at least 300 nM. With `CN(C)C(=O)Oc1ccc(F)c(CNc2cccc3c2CN(C2CCC(=O)NC2=O)C3=O)c1` (centres unmarked) [Compound A378, 3-(((2-(2,6-dioxopiperidin-3-yl)-1-oxoisoindolin-4-yl)amino)methyl)-4-fluorophenyl dimethylcarbamate], the inhibition at 0.1 µM with TNF-α is under 50%. Also, the concentration for half-maximal inhibition (IC50) in assay [1] (Homo sapiens, MM1.S) is at least 300 nM.

For `COc1cccc(CNc2cc(F)cc3c2CN(C2CCC(=O)NC2=O)C3=O)c1F` (centres unmarked) [Compound A318, 3-(6-fluoro-4-((2-fluoro-3-methoxybenzyl)amino)-1-oxoisoindolin-2-yl)-piperidine-2,6-dione], the inhibition at 0.1 µM with TNF-α was under 50%. The half-maximal inhibitory concentration (IC50) in assay [1] (Homo sapiens, MM1.S) is at least 300 nM.

As to `[2H][C@]1(N2Cc3c(NCc4cc(OC)ccc4F)cccc3C2=O)CCC(=O)NC1=O` [Compound A343, (S)-3-deuterium-3-(4-((2-fluoro-5-methoxybenzyl)amino)-1-oxoisoindolin-2-yl)piperidine-2,6-dione], the inhibition at 0.1 µM in the assay with TNF-α was at least 50%. The IC50 in assay [1] (Homo sapiens, MM1.S) was under 300 nM. The like results for `O=C1CCC(N2Cc3c(NCc4cc(OCCO)ccc4F)cccc3C2=O)C(=O)N1` (centres unmarked) [Compound A375, 3-(4-((2-fluoro-5-(2-hydroxyethoxy)benzyl)amino)-1-oxoisoindolin-2-yl)piperidine-2,6-dione] were, in that order, under 50% and at least 300 nM. Regarding `O=C1CCC(N2Cc3c(NCc4cccc(O)c4F)cccc3C2=O)C(=O)N1` (centres unmarked) [Compound A359, 3-(4-((2-fluoro-3-hydroxybenzyl)amino)-1-oxoisoindolin-2-yl)piperidine-2,6-dione], the inhibition at 0.1 µM in the assay with TNF-α is at least 50%. Further, in assay [1] (Homo sapiens, MM1.S), the 50% inhibitory concentration (IC50) is under 300 nM. Consider `CNc1ccc(F)c(COc2cccc3c2CN(C2CCC(=O)NC2=O)C3=O)c1` (centres unmarked) [Compound A390, 3-(4-((2-fluoro-5-(methylamino)benzyl)oxy)-1-oxoisoindolin-2-yl)piperidine-2,6-dione], for which the inhibition at 0.1 µM in the assay on TNF-α is at least 50%. In assay [1] (Homo sapiens, MM1.S), the IC50 is at least 300 nM.

`O=C1CC[C@H](N2Cc3c(NCc4ccc(CN5CCOCC5)cc4)cccc3C2=O)C(=O)N1` [Compound A346, (S)-3-(4-((4-(morpholinomethyl)benzyl)amino)-1-oxoisoindolin-2-yl) piperidine-2,6-dione]: in the assay on TNF-α, the inhibition at 0.1 µM was at least 50%. Besides, in assay [1] (Homo sapiens, MM1.S), the IC50 was under 300 nM. For `[2H]C1(N2Cc3c(N)cc(F)cc3C2=O)CCC(=O)NC1=O` (racemic) [Compound I-01], in the assay on TNF-α, the inhibition at 0.1 µM is over 50%.
